The values below come from patent publication US20140018545A1, “Inhibitors of Dipeptidylpeptidase IV” (Trustees of Tufts College, priority 2004, published 2014).

Read-outs that look alike come from different tables or passages of the source.

Experiment [1] addresses DP9 (Homo sapiens, UniProt Q86TI2). Put plainly: Dipeptidyl peptidase 9 inhibition assay (Example 1 assay with DP9 substituted for DPIV). It is filed as biochemical. The note with it: for DP9/DPIV ratio: ratio of IC50 values, selectivity for DPIV. Here is the method: In this example, the assay was conducted for DPIV and DP9. The ratio of IC50 values for each tested compound was calculated in order to determine the selectivity for the DPIV isoform. IC50 values were measured at the same pH throughout the assay.

Experiment [2] has as its target T1, DPIV (Homo sapiens, UniProt P27487). Put plainly: DPIV inhibition assay (L-alanyl-L-proline-para-nitroanilide substrate, absorbance at 410 nm).
Protocol: (§1) The inhibitor solution was prepared by dissolving 3-5 mg of inhibitor in pH 2 solution (0.01 N HCl), such that the concentration of the solution was equal to 1 mg/10 μL. A 10 μL sample of this solution was then added to 990 μL of pH 8 buffer (0.1 M HEPES, 0.14 M NaCl), and the solution was allowed to stand at room temperature overnight.
(§2) The substrate solution was prepared by dissolving 2.0 mg of L-alanyl-L-proline-para-nitroanilide into 20 mL of pH 8 buffer.
(§3) 250 μL of enzyme solution was added to well #B1 to #H1, #A2 to #H2, and #A3 to #H3 of a 96 well plate, while well #A1 received 250 μL of pH 8 buffer instead of enzyme solution. 90 μL of pH 8 buffer was then added to column 5 (from well #A5 to #H5).
(§4) A 1:10 dilution was then performed by adding inhibitor solution to #A5 and the solution was mixed well before transferring 10 μL of this solution from #A5 to #B5. The solution in #B5 was then mixed well before transferring 10 μL of this solution from #B5 to #C5. The solution in #C5 was then mixed well before transferring 10 μL of this solution from #C5 to #D5. The solution in #D5 was then mixed well before transferring 10 μL of this solution from #D5 to #E5. The solution in #E5 was then mixed well before transferring 10 μL of this solution from #E5 to #F5. The solution in #F5 was then mixed well before transferring 10 μL of this solution from #F5 to #G5. The solution in #G5 was then mixed well before transferring 10 μL of this solution from #G5 to #H5.
(§5) A 30 μL aliquot was then transferred from #H5 to #H3 for row H, and the contents were mixed well. The analogous procedure was repeated for rows G, F, E, D, C, B, and A sequentially. The plate was then shaken on a plate shaker for 5 minutes before allowing the plate to incubate at room temperature for an additional 5 minutes.
(§6) Once the plate had been allowed to incubate, 30 μL of substrate was added to each well except well #A1. The plate was then placed on a plate shaker for 5 minutes before allowing the plate to incubate at room temperature for 25 minutes. The absorbance was then immediately read at a wavelength of 410 nm.
Experiment [3] concerns the target T1, DPIV. Particulars: pH 8.
Protocol: as §1, §2, §3, §4, §5, §6
In experiment [4] the target is DP8 (Homo sapiens, UniProt Q6V1X1). The experiment is described as follows: Dipeptidyl peptidase 8 inhibition assay (Example 1 assay with DP8 substituted for DPIV). It is filed as biochemical. Particulars: at the pH values tested. Here is the method: L-Ala-[5-(HOCH2)-2-boroPro] was also tested to determine its inhibition of dipeptidyl peptidases 8 and 9 (DP8 and DP9). The assay is the same as that described in Example 1, except that DP8 or DP9 was substituted for DPIV.

Where [5] appears, read: Example 6, same pH throughout the assay (pH not stated), read-out: DP9 IC50.
Setting [6] is: read-out: DPIV IC50, Example 6, same pH throughout the assay (pH not stated).

Usually IC50 stands for the concentration needed to halve the response being measured.

T1 sequence (P27487 whole entry): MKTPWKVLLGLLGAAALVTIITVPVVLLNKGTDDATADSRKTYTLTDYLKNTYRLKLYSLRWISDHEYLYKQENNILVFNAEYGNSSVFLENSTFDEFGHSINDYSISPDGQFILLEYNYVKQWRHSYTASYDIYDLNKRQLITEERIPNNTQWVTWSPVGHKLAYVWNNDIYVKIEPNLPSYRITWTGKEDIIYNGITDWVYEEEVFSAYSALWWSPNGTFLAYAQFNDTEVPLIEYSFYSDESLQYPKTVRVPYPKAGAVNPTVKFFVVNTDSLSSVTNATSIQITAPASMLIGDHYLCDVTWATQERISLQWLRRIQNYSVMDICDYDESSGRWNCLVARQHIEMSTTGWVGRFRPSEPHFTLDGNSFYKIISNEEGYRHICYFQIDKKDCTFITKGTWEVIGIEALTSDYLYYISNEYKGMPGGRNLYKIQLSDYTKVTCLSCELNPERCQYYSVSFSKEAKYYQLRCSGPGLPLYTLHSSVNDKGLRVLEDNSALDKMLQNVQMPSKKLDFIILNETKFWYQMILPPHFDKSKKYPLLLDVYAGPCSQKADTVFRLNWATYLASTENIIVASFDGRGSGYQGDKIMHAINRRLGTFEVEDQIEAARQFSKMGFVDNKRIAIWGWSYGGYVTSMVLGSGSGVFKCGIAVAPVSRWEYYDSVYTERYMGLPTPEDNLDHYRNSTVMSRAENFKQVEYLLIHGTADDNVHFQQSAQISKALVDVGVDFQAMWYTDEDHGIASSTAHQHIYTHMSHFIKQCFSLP
Chain of DP9 (Q86TI2 whole entry, species assumed, canonical isoform): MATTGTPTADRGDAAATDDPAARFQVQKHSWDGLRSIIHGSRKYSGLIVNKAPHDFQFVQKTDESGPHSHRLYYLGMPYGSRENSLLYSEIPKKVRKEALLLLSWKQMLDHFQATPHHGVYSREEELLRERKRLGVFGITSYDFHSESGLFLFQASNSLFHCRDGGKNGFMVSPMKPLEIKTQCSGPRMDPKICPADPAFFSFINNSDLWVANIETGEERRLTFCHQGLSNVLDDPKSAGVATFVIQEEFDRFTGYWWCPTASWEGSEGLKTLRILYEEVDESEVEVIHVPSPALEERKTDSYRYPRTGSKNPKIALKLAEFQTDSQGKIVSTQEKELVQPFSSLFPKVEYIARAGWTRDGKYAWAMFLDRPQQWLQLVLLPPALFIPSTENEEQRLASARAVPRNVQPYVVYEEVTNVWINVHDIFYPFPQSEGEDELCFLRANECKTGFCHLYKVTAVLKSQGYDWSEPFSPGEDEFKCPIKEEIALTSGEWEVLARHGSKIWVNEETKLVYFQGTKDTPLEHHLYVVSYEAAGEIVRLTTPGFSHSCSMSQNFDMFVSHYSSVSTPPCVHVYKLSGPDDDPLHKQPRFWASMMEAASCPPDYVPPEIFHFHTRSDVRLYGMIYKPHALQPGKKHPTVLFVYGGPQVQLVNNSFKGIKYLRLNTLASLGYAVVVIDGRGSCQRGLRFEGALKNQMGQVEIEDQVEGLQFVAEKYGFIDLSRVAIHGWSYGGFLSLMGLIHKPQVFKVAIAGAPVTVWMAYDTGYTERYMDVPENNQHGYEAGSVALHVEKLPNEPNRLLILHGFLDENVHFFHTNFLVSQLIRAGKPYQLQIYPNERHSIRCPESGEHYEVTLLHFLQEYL
Chain of DP8 (Q6V1X1 whole entry, species assumed): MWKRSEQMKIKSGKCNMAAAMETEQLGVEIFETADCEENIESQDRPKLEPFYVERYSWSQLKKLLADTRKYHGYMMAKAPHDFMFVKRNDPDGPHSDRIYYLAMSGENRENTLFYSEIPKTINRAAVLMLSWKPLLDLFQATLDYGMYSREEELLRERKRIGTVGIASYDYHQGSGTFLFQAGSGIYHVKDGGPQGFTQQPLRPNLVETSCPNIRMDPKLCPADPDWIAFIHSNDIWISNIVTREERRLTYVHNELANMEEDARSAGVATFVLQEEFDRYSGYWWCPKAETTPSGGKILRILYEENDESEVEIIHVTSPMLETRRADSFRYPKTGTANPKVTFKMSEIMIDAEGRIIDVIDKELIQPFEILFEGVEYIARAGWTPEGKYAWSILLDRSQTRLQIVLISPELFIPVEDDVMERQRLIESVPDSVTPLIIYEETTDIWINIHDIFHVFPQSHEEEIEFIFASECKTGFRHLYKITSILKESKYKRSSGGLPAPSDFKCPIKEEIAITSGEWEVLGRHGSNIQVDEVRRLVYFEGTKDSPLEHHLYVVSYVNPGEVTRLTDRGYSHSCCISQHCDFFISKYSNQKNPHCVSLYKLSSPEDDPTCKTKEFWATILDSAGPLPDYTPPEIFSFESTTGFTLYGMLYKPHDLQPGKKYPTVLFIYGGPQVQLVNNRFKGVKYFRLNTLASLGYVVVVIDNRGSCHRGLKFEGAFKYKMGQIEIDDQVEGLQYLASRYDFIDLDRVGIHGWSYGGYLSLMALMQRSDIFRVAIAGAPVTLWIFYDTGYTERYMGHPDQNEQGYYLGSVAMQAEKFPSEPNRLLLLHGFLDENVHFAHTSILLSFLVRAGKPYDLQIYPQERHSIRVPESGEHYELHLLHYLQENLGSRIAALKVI

Take Arg-boroEtGly: the IC50 in experiment [1] (setting [5]) worked out at 0.007 µM; in experiment [2] (setting [6]), 10 nM. For the same molecule, the DP9/DPIV ratio in experiment [1] is 0.70.
`CC[C@H](NC(=O)[C@@H](N)CCC(=O)O)B(O)O` [Glu-boroEtg]: in experiment [2] (IC50, DPIV, pH 8), half-maximal inhibition (IC50) required 49 nM.
Turning to `N=C(N)NCCC[C@H](N)C(=O)N1CCC[C@H]1B(O)O` [Arg-boroPro], the concentration for half-maximal inhibition (IC50) was 0.824 µM in experiment [1] (setting [5]) and 2 nM in experiment [2] (DPIV IC50 (nM), Example 6, same pH throughout the assay (pH not stated)). Further, in experiment [1], the DP9/DPIV ratio is reported as 412.
As to `N[C@@H](CCC(=O)O)C(=O)N1CCC[C@H]1B(O)O` [Glu-boroPro], the IC50 is 2.4 µM in experiment [3] and 3 nM in experiment [2] (setting [6]).
For the molecule `C[C@H](N)C(=O)N1C(CO)CCC1B(O)O` (stereo partly drawn) [L-Ala-[5-(HOCH2)-2-boroPro]], the IC50 is more than 70 µM in experiment [1] (DP9, at the pH values tested, read-out: IC50); 28000 µM in experiment [1] (setting [5]); more than 70 µM in experiment [4]; 40 nM in experiment [2] (setting [6]); 21.9 nM in experiment [2] (read-out: IC50 at pH 2, DPIV, pH 2); 12900 nM in experiment [2] (read-out: IC50 at pH 8, DPIV, pH 8). In experiment [1] (in words, based on the IC50 ratios of Example 6), the “selectivity for DPIV over DP9” value is “highly selective for DPIV”. In experiment [1], the DP9/DPIV ratio is 700,000.
Regarding `C[C@H](NC(=O)[C@@H](N)CC(=O)O)B(O)O` [Asp-boroAla], the IC50 in experiment [1] (setting [5]) was found to be 5000 µM; in experiment [2] (setting [6]) it was 797000 nM. Moreover, the DP9/DPIV ratio in experiment [1] stood at 6.28.
Take `CC1CC[C@@H](B(O)O)N1C(=O)[C@H](C)N` (stereo partly drawn) [L-Ala-5-Me-boroPro]: the half-inhibitory concentration (IC50) in experiment [2] (IC50 at pH 2, DPIV, pH 2) came to 11 nM; in experiment [2] (IC50 at pH 8, DPIV, pH 8), 15400 nM.
With `C[C@H](NC(=O)[C@@H](N)CCCN=C(N)N)B(O)O` [Arg-boroAla], the figures for the concentration for half-maximal inhibition (IC50) in experiment [1] (setting [5]) and in experiment [2] (setting [6]) were 0.023 µM and 8 nM, respectively. The DP9/DPIV ratio in experiment [1] is reported as 2.88.
